Measured values: US20120277368A1, “AQUEOUS DISPERSION PRESSURE-SENSITIVE ADHESIVE COMPOSITION AND PRESSURE-SENSITIVE ADHESIVE SHEET” (NITTO DENKO CORPORATION, priority 2011, published 2012)

Experiment: Solubility in water (25° C.) of crosslinking agent
Assay type: physicochemical
Description: Furthermore, the compound (B) is a water-soluble compound. […] (parts by weight of the compound capable of being dissolved per 100 parts by weight of water) is 1 g or more (1 g/100 g or more), preferably 10 g or more (10 g/100 g or more), and more preferably 30 g or more (30 g/100 g or more). The solubility of the compound (B) in water can be measured, for example, as follows.
Water (25° C.) and a compound (B), having the same weight, are mixed by using a stirrer under the conditions of a rotation speed of 300 rpm and 10 minutes, and the mixture is separated into an aqueous phase and an oil phase by centrifugation. The aqueous phase is then collected and dried at 120° C. for 1 hour, and the nonvolatile content (parts by weight of the nonvolatile component per 100 parts by weight of water) in the aqueous phase is determined from the weight loss on drying.

## C1OC1CN(CC1CO1)CC1CO1 (stereo not shown) [N,N,N-tri(2,3-epoxypropyl)amine]
  solubility in water (25° C.): 100 g/100 g
